From publication doi:10.1101/2020.03.06.976563v1 (biorxiv, 2020)
Where two headings read alike, the source gives them in different places.

Experiments:
[1] = target: T1, cyclin G associated kinase (GAK), kinase domain (Homo sapiens, UniProt O14976); test: biochemical
T1 sequence (O14976 12-347 limits assumed): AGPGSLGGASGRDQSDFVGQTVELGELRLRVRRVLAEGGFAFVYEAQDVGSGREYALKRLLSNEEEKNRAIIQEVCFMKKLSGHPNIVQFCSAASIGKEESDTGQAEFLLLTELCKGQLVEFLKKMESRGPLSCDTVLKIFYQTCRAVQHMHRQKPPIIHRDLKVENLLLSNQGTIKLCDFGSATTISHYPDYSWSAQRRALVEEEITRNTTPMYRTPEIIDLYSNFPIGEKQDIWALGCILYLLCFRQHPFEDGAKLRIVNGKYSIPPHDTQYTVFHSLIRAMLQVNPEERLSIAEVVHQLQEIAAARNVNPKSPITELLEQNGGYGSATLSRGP

BMP2K [2] = target: T2, BMP2K (Homo sapiens, UniProt Q9NSY1); test: biochemical
AAK1 [3] = target: T3, AAK1 (Homo sapiens, UniProt Q2M2I8); test: biochemical
STK16 [4] = target: T4, STK16 (Homo sapiens, UniProt O75716); test: biochemical
BMP2K [5] = target: T2, BMP2K; test: biochemical; remark: listed apart in the source
AAK1 [6] = target: T3, AAK1; test: biochemical; remark: listed apart in the source
[7] = target: T1, cyclin G associated kinase (GAK), kinase domain; test: biochemical; remark: listed apart in the source
STK16 [8] = target: T4, STK16; test: biochemical; remark: listed apart in the source
[9] = target: T1, cyclin G associated kinase (GAK), kinase domain; test: TR-FRET ligand binding displacement assay, 16-point dose response

T4 sequence (O75716 whole entry): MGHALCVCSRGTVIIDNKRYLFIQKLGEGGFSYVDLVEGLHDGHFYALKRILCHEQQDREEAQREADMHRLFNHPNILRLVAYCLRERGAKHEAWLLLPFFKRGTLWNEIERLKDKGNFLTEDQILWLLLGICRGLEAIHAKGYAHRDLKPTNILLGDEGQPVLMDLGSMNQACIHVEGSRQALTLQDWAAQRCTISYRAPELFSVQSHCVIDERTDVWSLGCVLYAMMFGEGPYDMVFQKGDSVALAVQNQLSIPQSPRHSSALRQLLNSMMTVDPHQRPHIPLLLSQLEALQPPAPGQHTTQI
T3 sequence (Q2M2I8 whole entry): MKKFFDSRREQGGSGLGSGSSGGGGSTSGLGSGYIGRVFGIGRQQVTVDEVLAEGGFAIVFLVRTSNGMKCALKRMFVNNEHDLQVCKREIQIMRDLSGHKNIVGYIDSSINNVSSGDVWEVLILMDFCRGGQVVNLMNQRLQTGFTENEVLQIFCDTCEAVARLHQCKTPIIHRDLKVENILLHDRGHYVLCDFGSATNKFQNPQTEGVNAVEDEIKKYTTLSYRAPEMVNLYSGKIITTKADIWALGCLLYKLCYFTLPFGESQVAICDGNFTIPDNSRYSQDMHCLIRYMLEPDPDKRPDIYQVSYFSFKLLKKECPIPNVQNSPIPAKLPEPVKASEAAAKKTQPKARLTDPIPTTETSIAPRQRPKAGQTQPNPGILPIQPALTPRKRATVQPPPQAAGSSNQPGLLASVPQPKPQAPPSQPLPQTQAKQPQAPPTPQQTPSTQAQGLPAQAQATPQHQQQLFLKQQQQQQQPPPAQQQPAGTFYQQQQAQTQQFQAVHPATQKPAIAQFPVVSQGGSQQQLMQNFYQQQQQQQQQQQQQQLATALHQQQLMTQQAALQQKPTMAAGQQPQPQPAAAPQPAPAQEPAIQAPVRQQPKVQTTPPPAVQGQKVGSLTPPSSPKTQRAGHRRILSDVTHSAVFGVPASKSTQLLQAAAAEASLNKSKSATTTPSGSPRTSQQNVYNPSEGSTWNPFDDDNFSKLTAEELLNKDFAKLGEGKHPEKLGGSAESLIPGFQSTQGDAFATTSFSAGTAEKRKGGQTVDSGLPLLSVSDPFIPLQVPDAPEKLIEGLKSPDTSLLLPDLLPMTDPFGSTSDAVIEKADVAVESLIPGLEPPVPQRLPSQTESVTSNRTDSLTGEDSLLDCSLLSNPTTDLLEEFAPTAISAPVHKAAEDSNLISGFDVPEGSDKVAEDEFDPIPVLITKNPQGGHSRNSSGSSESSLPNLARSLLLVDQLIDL
T2 sequence (Q9NSY1 whole entry): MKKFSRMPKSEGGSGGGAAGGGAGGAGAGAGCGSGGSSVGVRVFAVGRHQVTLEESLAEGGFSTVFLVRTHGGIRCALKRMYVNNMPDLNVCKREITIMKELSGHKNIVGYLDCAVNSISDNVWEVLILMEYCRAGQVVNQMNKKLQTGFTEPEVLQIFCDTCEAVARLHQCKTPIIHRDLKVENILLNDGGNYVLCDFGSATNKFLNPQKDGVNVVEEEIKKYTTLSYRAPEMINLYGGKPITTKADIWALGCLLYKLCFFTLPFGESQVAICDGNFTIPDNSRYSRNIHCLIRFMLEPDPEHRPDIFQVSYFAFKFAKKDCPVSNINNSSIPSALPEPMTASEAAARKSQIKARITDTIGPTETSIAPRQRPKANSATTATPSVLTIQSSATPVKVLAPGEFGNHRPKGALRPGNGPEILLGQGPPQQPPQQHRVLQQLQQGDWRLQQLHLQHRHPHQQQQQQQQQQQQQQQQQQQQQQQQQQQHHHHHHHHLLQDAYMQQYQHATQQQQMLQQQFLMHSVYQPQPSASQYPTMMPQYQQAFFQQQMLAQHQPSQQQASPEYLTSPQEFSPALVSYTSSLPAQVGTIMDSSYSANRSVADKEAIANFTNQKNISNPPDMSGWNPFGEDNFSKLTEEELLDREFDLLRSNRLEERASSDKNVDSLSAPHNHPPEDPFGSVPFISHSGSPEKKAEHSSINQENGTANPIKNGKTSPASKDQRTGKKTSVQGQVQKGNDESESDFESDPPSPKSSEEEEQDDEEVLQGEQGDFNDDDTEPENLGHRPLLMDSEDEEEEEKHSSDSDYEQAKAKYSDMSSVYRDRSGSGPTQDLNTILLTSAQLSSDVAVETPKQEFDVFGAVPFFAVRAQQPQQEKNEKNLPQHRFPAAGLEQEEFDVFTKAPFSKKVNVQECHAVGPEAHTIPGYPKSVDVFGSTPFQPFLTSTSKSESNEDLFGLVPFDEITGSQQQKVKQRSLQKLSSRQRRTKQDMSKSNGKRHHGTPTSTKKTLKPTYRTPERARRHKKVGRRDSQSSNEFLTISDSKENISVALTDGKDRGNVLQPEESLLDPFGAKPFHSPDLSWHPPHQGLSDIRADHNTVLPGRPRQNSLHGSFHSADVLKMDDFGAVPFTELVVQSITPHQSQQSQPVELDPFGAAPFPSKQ

SMILES | Ki [1] [µM] | Ki (BMP2K [2]) [µM] | Ki (AAK1 [3]) [µM] | Ki (STK16 [4]) [µM] | Ki (BMP2K [5]) [µM] | Ki (AAK1 [6]) [µM] | Ki [7] [µM] | Ki (STK16 [8]) [µM] | Ki [9] [µM]
CC(C)(C)Oc1cccc(Nc2ccnc3ccc(Br)cc23)c1 [compound 33, 6-bromo-N-[3-(tert-butoxy)phenyl]quinolin-4-amine] | 2.2 | > 100 | 15 | 12 | – | – | – | – | –
Oc1cccc(Nc2ccnc3ccc(Br)cc23)c1 [compound 14, 3-((6-bromoquinolin-4-yl)amino)phenol] | 0.0012 | 2 | 0.5 | 5.7 | – | – | – | – | –
COc1cccc(Nc2ccnc3ccc(OC)cc23)c1 [compound 17, 6-methoxy-N-(3-methoxyphenyl)quinolin-4-amine] | – | – | – | – | 26 | 9.1 | 0.0079 | > 100 | –
COc1ccc2nccc(Nc3cccc(O)c3)c2c1 [compound 18, 3-((6-methoxyquinolin-4-yl)amino)phenol] | – | – | – | – | 7.3 | 1.6 | 0.0057 | 27 | –
CC(C)(C)c1cccc(Nc2ccnc3ccc(Br)cc23)c1 [compound 34, 6-bromo-N-(3-tert-butylphenyl)quinolin-4-amine] | 2.6 | > 100 | > 100 | > 100 | – | – | – | – | –
CN(C)c1cccc(Nc2ccnc3ccc(C(F)(F)F)cc23)c1 [compound 8, ^1N,^1N-dimethyl-3-N-[6-(trifluoromethyl)quinolin-4-yl]benzene-1,3-diamine] | – | – | – | – | > 100 | > 100 | – | 13 | 0.65
OCc1cccc(Nc2ccnc3ccc(C(F)(F)F)cc23)c1 [compound 11, (3-{[6-(trifluoromethyl)quinolin-4-yl]amino}phenyl)methanol] | – | – | – | – | 15 | 10 | 0.06 | 20 | –
O=[N+]([O-])c1cccc(Nc2ccnc3ccc(Br)cc23)c1 [compound 21, 6-bromo-N-(3-nitrophenyl)quinolin-4-amine] | 0.056 | > 100 | 40 | > 100 | – | – | – | – | –
COc1cccc(Nc2ccnc3ccc(S(C)(=O)=O)cc23)c1 [compound 19, 6-methanesulfonyl-N-(3-methoxyphenyl)quinolin-4-amine] | – | – | – | – | 19 | 23 | 0.03 | > 100 | –
Brc1ccc2nccc(Nc3cccc4c3OCO4)c2c1 [compound 27, N-(Benzo[d][1,3]dioxol-4-yl)-6-bromoquinolin-4-amine] | – | > 100 | > 100 | > 100 | – | – | – | – | –
CN(C)c1cccc(Nc2ccnc3ccccc23)c1 [compound 10, N1 ,N1-dimethyl-N3-(quinolin-4-yl)benzene-1,3-diamine] | – | – | – | – | > 100 | 29 | 0.97 | > 100 | –
OCc1ccccc1Nc1ccnc2ccc(C(F)(F)F)cc12 [compound 12, (2-{[6-(trifluoromethyl)quinolin-4-yl]amino}phenyl)methanol] | – | – | – | – | 16 | 8.5 | 0.041 | 5 | –
Oc1cccc(Nc2ccnc3ccc(C(F)(F)F)cc23)c1 [compound 5, 3-((6-(trifluoromethyl)quinolin-4-yl)amino)phenol] | – | – | – | – | 5.8 | 2.6 | 0.0047 | 3 | –
Oc1cccc(Nc2ccnc3ccccc23)c1 [compound 16, 3-(quinolin-4-ylamino)phenol] | – | – | – | – | 30 | 6.6 | 0.012 | > 100 | –
O=[N+]([O-])c1cccc(Nc2ccnc3ccc(C(F)(F)F)cc23)c1 [compound 6, N-(3-nitrophenyl)-6-(trifluoromethyl)quinolin-4-amine] | – | – | – | – | > 100 | > 100 | 0.21 | > 100 | –
Brc1ccc2nccc(Nc3ccc4c(c3)OCO4)c2c1 [compound 25, N-(2H-1,3-benzodioxol-5-yl)-6-bromoquinolin-4-amine] | 0.035 | 12 | 5.2 | 10 | – | – | – | – | –
COc1cccc(Nc2ccnc3ccc(Br)cc23)c1 [compound 13, 6-bromo-N-(3-methoxyphenyl)quinolin-4-amine] | 0.0029 | 7 | 3 | 32 | – | – | – | – | –
COc1cccc(Nc2ncnc3ccc(Br)cc23)c1 [compound 29, 6-bromo-N-(3-methoxyphenyl)quinazolin-4-amine] | 0.011 | 1.3 | 0.39 | 5.5 | – | – | – | – | –
FS(F)(F)(F)(F)c1cccc(Nc2ccnc3ccc(Br)cc23)c1 [compound 32, 6-bromo-N-(3-(pentafluoro-λ^6-sulfaneyl)phenyl)quinolin-4-amine] | 4.9 | > 100 | > 100 | > 100 | – | – | – | – | –
COc1cccc(Nc2ccnc3ccccc23)c1 [compound 15, N-(3-methoxyphenyl)quinolin-4-amine] | – | – | – | – | > 100 | 25 | 0.027 | > 100 | –
